Experimental data taken from patent US8716530B2, “Facially amphiphilic polyaryl and polyarylalkynyl polymers and oligomers and uses thereof” (The Trustess of the University of Pennsylvania, priority 2004, dated 2014).
In brackets after ≈: the same amount, converted by molar mass. Several values for one entry are separate records, joined by “and”; a condition that tells them apart may be missing. Equal entries are not always repeated. Where two headings read alike, the source gives them in different places.

What was measured:
[1] = system: Staphylococcus epidermidis; type: cell-based
Streptococcus gordonii = type: cell-based
Bacillus subtilis = type: cell-based
B. anthracis = test: microbe, parasite or virus in culture; type: cell-based, Bacillus anthracis
[2] = system: S. aureus and methicillin-resistant S. aureus (MRSA); test: MIC100, modified NCCLS microbroth dilution (Table 6); type: cell-based; conditions: Staphylococcus aureus
Chaetomium globosum = test: Antifungal MIC/MFC, NCCLS M38-A; type: cell-based
Procedure: (§1) MIC endpoints were determined for A. fumigatus, P. funiculosum, C. globosum and T. virens according to current NCCLS guidelines defined for testing A. fumigatus (NCCLS M38-A, 2002). […] Amphotericin B was included in the screen with C. albicans as a positive control. All MIC testing was done in 96 well microtiter panels using RPMI 1640 (with glutamine and without bicarbonate) broth as a growth media. Incubation was at 35° C., and growth was read at 48, 72, (and for some slow growing fungal species, 96 hours). […] MFC (minimal fungicidal concentrations) endpoints were calculated using a modified methodology based on the NCCLS defined methodology for measuring minimal bactericidal concentrations (MBC). Experimentation to calculate MFCs was undertaken only for those organisms for which an MIC endpoint was satisfactorily calculated. MFCs are defined as the concentration required to reduce the number of viable organisms by at least 90%.

Penicillium funiculosum = test: Antifungal MIC/MFC, NCCLS M38-A; type: cell-based
Procedure: as §1

Trichoderma virens = test: Antifungal MIC/MFC, NCCLS M38-A; type: cell-based
Procedure: as §1

Aspergillus fumigatus = test: Antifungal MIC/MFC, NCCLS M38-A; type: cell-based
Procedure: as §1

B. subtilis = test: Modified NCCLS microbroth dilution MIC assay; conditions: Bacillus subtilis
Y. pestis = test: microbe, parasite or virus in culture; type: cell-based; conditions: Yersinia pestis, 30 h, read-out: MIC100 Y. pestis (30 hr)
Klebsiella pneumoniae = type: cell-based
Haemophilus influenzae = test: MIC100, clinical isolates of hospital-acquired pathogens (Table 7); type: cell-based; conditions: Mueller Hinton+NAD+yeast extract+hematin, in µg/mL
Proteus vulgaris = type: cell-based
F. tularensis = test: microbe, parasite or virus in culture; type: cell-based; conditions: Francisella tularensis
Staphylococcus aureus [3] = type: cell-based
Escherichia coli = type: cell-based
S. aureus = type: cell-based; conditions: S. aureus passaged at 0.5x MIC100; by passage 16 (17 consecutive passages)
[4] = system: Lovenox inhibition of Factor Xa (FXa) activity; test: Chromogenic FXa assay: antagonism of Lovenox inhibition of Factor Xa; type: biochemical; conditions: fixed concentration of Lovenox, chromogenic substrate S-2765
Procedure: To assess the potential of the phenylalkynyl oligomers to act as antagonists of the low molecular weight heparins (LMWH), Compound 3 was assayed for its ability to antagonize the inhibition of Factor Xa (FXa) activity by the LMWH Lovenox was determined for Compound 3. Briefly, FXa activity in the presence of Lovenox and inhibitor was measured in a chromogenic assay using reagents purchased from DiaPharma. […] In the assay setup for Schild-plot analysis (KB determination), varying concentrations of Lovenox were incubated with AT for 5 minutes. Different concentrations of inhibitor were added to each row of wells, to construct curves of fixed inhibitor concentration, and lightly shaken and incubated for 20 minutes. FXa was then added and reaction was shaken and incubated for 10 minutes. The substrate (S-2765) was then added to initiate the clotting cascade and the 96-well plate was then shaken and read every 30 seconds for 7 minutes at 405 nm on a ThermoLabsystems Multiskan Spectrum. The single curve Lovenox titration experiments (IC50 determination) consisted of the same procedure, but with a fixed concentration of Lovenox (determined by a titration curve in the absence of inhibitor). The analysis of each curve was performed using GraphPad Prism version 4.00 for Windows.

human erythrocytes = test: Hemolysis of human erythrocytes (HC50)
Salmonella typhimurium = type: cell-based
Proteus mirabilis = type: cell-based
E. coli [5] = test: Modified NCCLS microbroth dilution MIC assay; type: cell-based; conditions: Escherichia coli
Pseudomonas stuarti = type: cell-based
K. pneumonia = test: Modified NCCLS microbroth dilution MIC assay; conditions: Klebsiella pneumoniae, read-out: K. pneumonia MIC
Streptococcus agalactiae = type: cell-based
Staphylococcus aureus [6] = test: MIC100, control microbial agent, NCCLS guidelines; type: cell-based; conditions: strain ATCC29213, control organism (Table 5), read-out: MIC100 S. aureus ATCC29213
E. coli [7] = test: MIC100, modified NCCLS microbroth dilution (Table 6); type: cell-based; conditions: Escherichia coli
Candida albicans = test: MIC100, clinical isolates of hospital-acquired pathogens (Table 7); type: cell-based; conditions: one table line per isolate, RPMI synthetic medium, in µg/mL
[8] = concentration reducing viable organisms by at least 90%

## NCCc1cc(Br)cc(C#Cc2cccc(C#Cc3cc(Br)cc(CCN)c3)c2)c1 [Compound 3]
[1]
  MIC100 Staphylococcus epidermidis: 0.8 µg/mL (≈ 1.53 µM)
Streptococcus gordonii
  MIC100 Streptococcus gordonii: 1.7 µg/mL (≈ 3.25 µM)
Bacillus subtilis
  MIC100 Bacillus subtilis: 1.7 µg/mL (≈ 3.25 µM)
B. anthracis; Bacillus anthracis, 24 h, read-out: MIC100 B. anthracis (24 hr)
  MIC: 1 µg/mL (≈ 1.91 µM)
B. anthracis; growth recorded at 2 hour intervals over 24 hours (FIG. 3)
  Time course of growth inhibition of Bacillus anthracis: complete inhibition of growth at early and late time points
[2]; ATCC 29213 / MRSA, strain ATCC29213 (Table 6), read-out: MIC100 S. aureus ATCC29213
  MIC: 0.5 µg/mL (≈ 0.957 µM)
[2]; MRSA, methicillin-resistant S. aureus OC2878, read-out: MIC100 MRSA OC2878
  MIC: 0.5 µg/mL (≈ 0.957 µM)
Chaetomium globosum; RPMI 1640, 35° C.
  MIC Chaetomium globosum: 0.5 µg/mL (≈ 0.957 µM)
Chaetomium globosum; [8]
  MFC Chaetomium globosum: 8 µg/mL (≈ 15.3 µM)
Penicillium funiculosum; RPMI 1640, 35° C.
  MIC Penicillium funiculosum: 1 µg/mL (≈ 1.91 µM)
Penicillium funiculosum; [8]
  MFC Penicillium funiculosum: 2 µg/mL (≈ 3.83 µM)
Trichoderma virens; RPMI 1640, 35° C.
  MIC Trichoderma virens: 32/32
Trichoderma virens; [8]
  MFC Trichoderma virens: 32/32
Aspergillus fumigatus; RPMI 1640, 35° C.
  MIC Aspergillus fumigatus: 32/32
Aspergillus fumigatus; [8]
  MFC Aspergillus fumigatus: 32/32
B. subtilis; read-out: B. subtilis MIC
  MIC: 1.6 µg/mL (≈ 3.06 µM)
B. subtilis; read-out: MIC90 B. subtilis
  MIC90: 1.6 µg/mL (≈ 3.06 µM)
Y. pestis
  MIC: 4 µg/mL (≈ 7.66 µM)
Klebsiella pneumoniae
  MIC100 Klebsiella pneumoniae: 1.7 µg/mL (≈ 3.25 µM)
Haemophilus influenzae
  mic (MIC100) Haemophilus influenzae: 4
Proteus vulgaris
  MIC100 Proteus vulgaris: 3.4 µg/mL (≈ 6.51 µM)
F. tularensis; read-out: MIC100 F. tularensis 17135
  MIC: 1 µg/mL (≈ 1.91 µM)
F. tularensis; read-out: MIC100 F. tularensis 17137
  MIC: 1 µg/mL (≈ 1.91 µM)
Staphylococcus aureus [3]
  MIC100 Staphylococcus aureus: 1.7 µg/mL (≈ 3.25 µM)
Escherichia coli
  MIC100 Escherichia coli 6C4468: 1.7 µg/mL (≈ 3.25 µM)
  MIC100 Escherichia coli CIS: 1.7 µg/mL (≈ 3.25 µM)
  MIC100 Escherichia coli D31: 0.84 µg/mL (≈ 1.61 µM)
S. aureus
  increase in MIC on serial passage: No consistent increase in the MIC
[4]
  IC50: 5.07 µM
Human erythrocytes; human erythrocytes, one hour incubation, 50% hemoglobin release, Table 1
  Hemolysis HC50: 75 µg/mL
Human erythrocytes; human erythrocytes, Table 2
  HC50: 75 µg/mL
Human erythrocytes; ratio of HC50 to E. coli MIC
  Selectivity HC50/MIC E.coli: 88.2
Salmonella typhimurium
  MIC100 Salmonella typhimurium: 3.4 µg/mL (≈ 6.51 µM)
Proteus mirabilis
  MIC100 Proteus mirabilis: > 6.6 µg/mL
E. coli [5]; read-out: MIC90 E. Coli
  MIC90: 0.8 µg/mL (≈ 1.53 µM)
E. coli [5]; 18 to 20 hours incubation, OD 600 nm
  MIC: 0.8 µg/mL (≈ 1.53 µM)
E. coli [5]; E. coli D31, defined as >3 log reduction in bacterial titre
  MBC: 0.8 µg/mL (≈ 1.53 µM)
Pseudomonas stuarti
  MIC100 Pseudomonas stuarti: > 6.6 µg/mL
K. pneumonia
  MIC: 1.7 µg/mL (≈ 3.25 µM)
Streptococcus agalactiae
  MIC100 Streptococcus agalactiae: 0.4 µg/mL (≈ 0.766 µM)
Staphylococcus aureus [6]
  MIC: 2 µg/mL (≈ 3.83 µM)
E. coli [7]; strain ATCC25922, read-out: MIC100 E. coli ATCC25922
  MIC: 2 µg/mL (≈ 3.83 µM)
E. coli [7]; strain OC2530, read-out: MIC100 E. coli OC2530
  MIC: 0.5 µg/mL (≈ 0.957 µM)
Candida albicans
  mic (MIC100) Candida albicans: 0.5 and 1
